Test system: ATF4 translation
Test: ATF4 cell based assay (ATF4 reporter assay, NanoLuc luciferase fused to 5'-UTR of ATF4)
Settings: SH-SY5Y-ATF4-NanoLuc cells challenged with Thapsigargin for 14-18 hours; average of a set of two or more experimental runs; read-out: average ATF4 pathway inhibitory activity (IC50)
Source text: The ATF4 reporter assay measures the effect of Thapsigargin induced cellular stress on ATF4 expression. For this reporter assay, a stable cell line was created by transfecting SH-SY5Y cells with a plasmid containing the NanoLuc® luciferase gene fused to the 5′-UTR of ATF4, under the control of the CMV promoter. The ATF4 5′-UTR contains two open reading frames which mediate the cellular stress-dependent translation of the reporter gene. Clones stably expressing the reporter construct were isolated and selected based on the luminescence response to thapsigargin and inhibition of this signal by test compounds. Briefly, SH-SY5Y-ATF4-NanoLuc cells were challenged with Thapsigargin for 14-18 hours to determine the stress effect with or without test compounds. Cells were propagated in growth media consisting of 90% DMEM F12 (InVitrogen #11320-033), 10% Fetal Bovine Serum (Gibco #10438-026), 5 mM Glutamax (Gibco #35050-061), 5 mM Hopes, (Gibco #15630-080), and 0.5 mg/ml Geneticin (Gibco #10131-027). Cells were prepared for the assay by removing all media from cells, washing the plated cells with phosphate buffered saline, and detached by adding a solution comprised of 10% Tryple express solution (InVitrogen 12604-021) and 90% enzyme-free cell dissociation buffer HANKS base (Gibco 13150-016). The trypsin was deactivated by adding assay media comprised of 90% phenol-red free DMEM F12 (InVitrogen, 11039), 10% Fetal Bovine Serum (Gibco #10438-026), (5 mM Glutamax (Gibco #35050-061), mM Hopes, (Gibco #15630-080), and 0.5 mg/ml Geneticin (Gibco #10131-027). Suspended cells were spun down at 300 g for 5 min, the supernatant was removed and the cell pellet was suspended in warm media (30-37° C.) comprised as above at (1e6 cell/ml). Assay plates were prepared by adding 250 nL of compound stock solution in 100% DMSO to each well, followed by dispensing 20 microliters/well cell suspension to deliver 15-20 k cell/well. Cells were incubated for 1 hour at 37° C. Then, 5 μL of 1.5 μM or 1 μM of Thapsigargin (final concentration: 200-300 nM) was added to each well of cells. Assay plates containing cells were incubated for 14-18 hours at 37° C. The measurement of luciferase produced by the ATF4 constructs was measured as follows. Aliquots of the Nano-Glo reagent (Nano-Glo® Luciferase Assay Substrate, Promega, N113, Nano-Glo® Luciferase Assay Buffer, Promega, N112 (parts of Nano-Glo® Luciferase Assay System, N1150) were brought to room temperature, the substrate and buffer were mixed according to manufacturer's instructions. The cell plates were equilibrated to room temperature. 25microliters/well of the mixed Nano-Glo reagent were dispensed into assay wells and pulse spun to settle contents and the plate was sealed with film. The plates were incubated at room temperature for 1 hour before detecting luminescence on an Envision plate reader.

| Compound | IC50 [nM] |
| --- | --- |
| O=C(COc1ccc(Cl)cc1)NC1CCN(CCCOc2ccc(Cl)cc2)CC1 [Example 2, 2-(4-chlorophenoxy)-N-(1-(3-(4-chlorophenoxy)propyl)piperidin-4-yl)acetamide] | < 4000 |
| O=C(COc1ccc(Cl)cc1)NC1CCN(CC(O)COc2ccc(Cl)cc2)CC1 (centres unmarked) [Example 11, 2-(4-chlorophenoxy)-N-(1-(3-(4-chlorophenoxy)-2-hydroxypropyl)piperidin-4-yl)acetamide] | 32 |
| O=C(NCCc1ccc(Cl)cc1)C1CCN(C(=O)COc2ccc(Cl)cc2)CC1 [Example 24, N-(4-chlorophenethyl)-1-(2-(4-chlorophenoxy)acetyl)piperidine-4-carboxamide] | 201 |
| O=C(COc1ccc(Cl)cc1)NC1CCCN(C(=O)COc2ccc(Cl)cc2)C1 (centres unmarked) [Example 27, 2-(4-chlorophenoxy)-N-(1-(2-(4-chlorophenoxy)acetyl)piperidin-3-yl)acetamide] | > 1000 |
| O=C(COc1ccc(Cl)cc1)NCCC1CCCN(C(=O)COc2ccc(Cl)cc2)C1 (centres unmarked) [Example 28, 2-(4-chlorophenoxy)-N-(2-(1-(2-(4-chlorophenoxy)acetyl)piperidin-3-yl)ethyl)acetamide] | < 1000 |
| O=C(COc1ccc(Cl)nc1)NCC1CCCN(C(=O)COc2ccc(Cl)cc2)C1 (centres unmarked) [Example 29, N-((1-(2-(4-chlorophenoxy)acetyl)piperidin-3-yl)methyl)-2-((6-chloropyridin-3-yl)oxy)acetamide] | > 1000 |
| O=C(COc1ccc(Cl)cc1)NC1CCN(C(=O)COc2ccc(Cl)cc2)CC1F (centres unmarked) [Example 30, 2-(4-chlorophenoxy)-N-(1-(2-(4-chlorophenoxy)acetyl)-3-fluoropiperidin-4-yl)acetamide] | 110 |
| O=C(COc1ccc(Cl)cc1)NC1CCN(C(=O)CCCc2ccc(Cl)cc2)CC1 [Example 37, 2-(4-chlorophenoxy)-N-(1-(4-(4-chlorophenyl)butanoyl)piperidin-4-yl)acetamide] | 98.7 |
| O=C(NCCOc1ccc(Cl)cc1)C1CCN(CCOc2ccc(Cl)cc2)CC1 [Example 39, N,1-bis(2-(4-chlorophenoxy)ethyl)piperidine-4-carboxamide] | > 1000 |
| O=C(COc1ccc(Cl)cc1)NC1CCN(CCOc2ccc(Cl)cc2)CC1F (centres unmarked) [Example 50, 2-(4-chlorophenoxy)-N-(1-(2-(4-chlorophenoxy)ethyl)-3-fluoropiperidin-4-yl)acetamide] | 93.9 |
| O=C(COc1ccc(C2CC2)cc1)NC1CCN(CCCOc2ccc(Cl)cc2)CC1 [Example 56, N-(1-(3-(4-chlorophenoxy)propyl)piperidin-4-yl)-2-(4-cyclopropylphenoxy)acetamide] | > 1000 |

The remaining lines, values ahead:

| IC50 [nM] | Compound |
| --- | --- |
| 76.8 | O=C(COc1ccc(Cl)cc1)NC1CCN(CCCOc2ccc(Cl)nc2)CC1 [Example 17, 2-(4-chlorophenoxy)-N-(1-(3-((6-chloropyridin-3-yl)oxy)propyl)piperidin-4-yl)acetamide] |
| > 1000 | O=C(NCCOc1ccc(Cl)cc1)C1CCN(CCCOc2ccc(Cl)cc2)CC1 [Example 40, N-(2-(4-chlorophenoxy)ethyl)-1-(3-(4-chlorophenoxy)propyl)piperidine-4-carboxamide] |
| 58.4 | O=C(COc1ccc(Cl)nc1)NC1CCN(CCCOc2ccc(Cl)cc2)CC1 [Example 43, N-(1-(3-(4-chlorophenoxy)propyl)piperidin-4-yl)-2-((6-chloropyridin-3-yl)oxy)acetamide] |
| > 1000 | O=C(COc1ccc(Cl)cc1)NCC1CCN(CCCOc2ccc(Cl)cc2)CC1 [Example 49, 2-(4-chlorophenoxy)-N-((1-(3-(4-chlorophenoxy)propyl)piperidin-4-yl)methyl)acetamide] |
| 61.2 | CN(C(=O)COc1ccc(Cl)cc1)C1CCN(CCCOc2ccc(Cl)cc2)CC1 [Example 57, 2-(4-chlorophenoxy)-N-(1-(3-(4-chlorophenoxy)propyl)piperidin-4-yl)-N-methylacetamide] |
| 172 | O=C(COc1ccc(Cl)cc1)NC1CCN(CCCOc2ccc(Cl)cc2)C(C(=O)O)C1 (centres unmarked) [Example 59, 4-(2-(4-chlorophenoxy)acetamido)-1-(3-(4-chlorophenoxy)propyl)piperidine-2-carboxylic acid] |

Reference: patent US11547704B2, “Chemical compounds” (GlaxoSmithKline Intellectual Property Development Limited, priority 2016, dated 2023)
